Source: patent US6372779B1, “Anti-inflammatory compounds” (Ortho Pharmaceutical Corporation, priority 1997, dated 2002)

Legend:
[1] = tested on: oxazolone-induced ear swelling in CD-1 mice; assay: mouse oxazolone-induced contact hypersensitization (MOCH), ear swelling; type: in vivo; conditions: topical to ear, 1 mg, mouse, 24 hours after oxazolone challenge; read-out: Oxazolone Ear Swelling (MOCH) % inhibition vs. Vehicle at 1 mg
Protocol: Several triphenylpropanamide compounds of this invention, having varying affinities for the human glucocorticoid receptor, were tested for topical antiinflammatory activity in mouse ear inflammation models. […] Compounds having receptor affinities closer to hydrocortisone were as nearly active as hydrocortisone in suppressing mouse oxazolone-induced contact hypersensitization (MOCH) and phorbol ester-induced ear edema. The in vivo studies of this example were conducted as follows.
In determining the MOCH using the compounds of this invention, albino male CD-1 mice, 7-9 weeks old were induced on the shaved abdomen with 50 μl of 3% oxazolone in acetone/corn oil (Day 0). On Day 5, a 20 μl volume of 2% oxazolone in acetone was applied to the dorsal left ear of the mouse. Compounds (made in ethanol/propylene glycol, 70:30) were applied to the left ear in 20 μl volume, one hour after oxazolone challenge. The right ear was not treated. The mice were sacrificed by carbon dioxide inhalation 24 hours after oxazolone challenge, the left and right ears were removed and a 7 mm biopsy was removed from each ear and weighed. The difference in biopsy weights between the right and left ears was calculated. Antiinflammatory effects of compounds were evident as an inhibition of the increase in ear weight.

[2] = tested on: human progesterone receptor (hPR); assay: human progesterone receptor binding assay (displacement of 3H R5020 promegestone)
Protocol: A human progesterone receptor binding assay was performed in order to determine selectivity of the compounds, as follows. Human progesterone receptors were prepared from either insect cells (SF21) infected with baculovirus hPR A, or from a breast cancer cell line, T47D, which expresses high levels of endogenous hPR. The receptor binding reactions, with or without test compounds, were set up in 96-well microtiter plates which were previously siliconized with SIGMACOTE. The binding components, 3(H) R5020 Promegestone, a high affinity ligand for the progesterone receptors, glycerollmolybdate-containing buffer and unlabeled compounds were added to the wells using a combination of BIOMEK laboratory automation system and repeat pipettes. After overnight incubation, the samples were precipitated with polyethylene glycol and filtered through Whatman GF/F paper using a TOMTEK cell harvester. The filter mate with 96 samples were bound to a solid-phase scintillant and directly counted in the BETAPLATE counter. Only those compounds that were active in the human glucocorticoid receptor assay set forth in Example 30 were used for progesterone receptor binding to determine cross-reactivity profiles, if any. The activity of test compounds to displace 3(H) R5020 binding to hPR is expressed as percent inhibition at the two concentrations, 10^−6 and 10^−5 Molar.

Compound	melting point [°C]	hPR % inh 10 μM [2] [%]	inhibition in vivo at 1 mg [1] [%]
O=C(NCC(c1ccccc1)C(c1ccccc1)c1ccccc1)Oc1ccccc1 (stereo not shown) [Compound 56]	128 to 129	–	38
O=C(NCC(c1ccccc1)C(c1ccccc1)c1ccccc1)Oc1ccc(F)cc1 (stereo not shown) [Compound 58]	150 to 151	–	16
CCCC(=O)NCC(c1ccccc1)C(c1ccccc1)c1ccccc1 (stereo not shown) [Compound 60]	88 to 89	–	27
CC(C)C(=O)NCC(c1ccccc1)C(c1ccccc1)c1ccccc1 (stereo not shown) [Compound 61]	114 to 115	–	17
O=C(Cc1ccccc1)NCC(c1ccccc1)C1c2ccccc2-c2ccccc21 (stereo not shown) [Compound 66]	148.7 to 150.8	–	20
COc1ccccc1CCC(=O)NCC(c1ccccc1)C1c2ccccc2CCc2ccccc21 (stereo not shown) [Compound 74]	134.3 to 136.8	–	18
O=C(Cc1ccsc1)NCC(c1ccccc1)C1c2ccccc2CCc2ccccc21 (stereo not shown) [Compound 76]	167.3 to 169.3	–	23
Cc1ccc(C(=O)NCC(c2ccccc2)C2c3ccccc3CCc3ccccc32)s1 (stereo not shown) [Compound 77]	172.1 to 173	–	41
COc1ccc(CC(=O)NCC2(c3ccccc3)CC2(c2ccccc2)c2ccccc2)cc1OC (stereo not shown) [Compound 79]	131 to 133.5	–	18
O=C(Cc1ccccc1Cl)NCC1(c2ccccc2)CC1(c1ccccc1)c1ccccc1 (stereo not shown) [Compound 80, N-(2chlorophenyl)acetyl-1,2,2-triphenylcyclopropylmethylamine]	128.5 to 130.5	–	54
COc1ccccc1CCC(=O)NCC1(c2ccccc2)CC1(c1ccccc1)c1ccccc1 (stereo not shown) [Compound 81]	187.5 to 189	–	22
O=C(NCC1(c2ccccc2)CC1(c1ccccc1)c1ccccc1)C(c1ccccc1)c1ccccc1 (stereo not shown) [Compound 82]	166 to 169	–	23
CCCC(=O)NCC1(c2ccccc2)CC1(c1ccccc1)c1ccccc1 (stereo not shown) [Compound 83]	149 to 150	–	-4
CC(C)C(=O)NCC1(c2ccccc2)CC1(c1ccccc1)c1ccccc1 (stereo not shown) [Compound 84]	167 to 168	–	54
CCCCC(=O)NCC1(c2ccccc2)CC1(c1ccccc1)c1ccccc1 (stereo not shown) [Compound 87]	122 to 123	–	22
O=C(NCC1(c2ccccc2)CC1(c1ccccc1)c1ccccc1)c1cccs1 (stereo not shown) [Compound 90]	152.5 to 155	–	65
Cc1ccc(C(=O)NCC2(c3ccccc3)CC2(c2ccccc2)c2ccccc2)s1 (stereo not shown) [Compound 91]	168 to 170.5	–	13
O=C(NCC1(c2ccccc2)CC1(c1ccccc1)c1ccccc1)Nc1ccccc1 (stereo not shown) [Compound 92]	209 to 210	–	42
O=C(NCC1(c2ccccc2)CC1(c1ccccc1)c1ccccc1)Oc1ccccc1 (stereo not shown) [Compound 96]	146 to 147	–	52

Compound	melting point [°C]	hPR % inh 10 μM [2] [%]	inhibition in vivo at 1 mg [1] [%]
O=C(NCC1(c2ccccc2)CC1(c1ccccc1)c1ccccc1)Oc1ccc(Cl)cc1 (stereo not shown) [Compound 97]	171 to 172	–	50
O=C(Cc1ccc([N+](=O)[O-])cc1)NCC(c1ccc(C(F)(F)F)cc1)C(c1ccccc1)c1ccccc1 (stereo not shown) [Compound 154]	–	34	–
CN(C)c1ccc(CC(=O)NCC(c2ccc(C(F)(F)F)cc2)C(c2ccccc2)c2ccccc2)cc1 (stereo not shown) [Compound 155]	–	29	–
O=C(Cc1ccc(-c2ccccc2)cc1)NCC(c1ccc(C(F)(F)F)cc1)C(c1ccccc1)c1ccccc1 (stereo not shown) [Compound 156]	–	19	–
O=C(Cc1ccc2ccccc2c1)NCC(c1ccc(C(F)(F)F)cc1)C(c1ccccc1)c1ccccc1 (stereo not shown) [Compound 157]	–	10	–
Cc1c(CC(=O)NCC(c2ccc(C(F)(F)F)cc2)C(c2ccccc2)c2ccccc2)sc2ccc(Cl)cc12 (stereo not shown) [Compound 158]	–	16	–
CN(C)c1ccc(C=CC(=O)NCC(c2ccc(C(F)(F)F)cc2)C(c2ccccc2)c2ccccc2)cc1 (stereo not shown) [Compound 159]	–	12	–
O=C(Cc1ccc(Cl)cc1)NCC(c1ccc(I)cc1)C(c1ccccc1)c1ccccc1 (stereo not shown) [Compound 162]	–	30	–
O=C(Cc1ccc(Cl)c(Cl)c1)NCC(c1ccc(I)cc1)C(c1ccccc1)c1ccccc1 (stereo not shown) [Compound 163]	–	44	–
O=C(Cc1ccc(F)cc1)NCC(c1ccc(I)cc1)C(c1ccccc1)c1ccccc1 (stereo not shown) [Compound 165]	–	79	–
O=C(Cc1ccc(C(F)(F)F)cc1)NCC(c1ccc(I)cc1)C(c1ccccc1)c1ccccc1 (stereo not shown) [Compound 166]	–	46	–
COc1ccccc1CC(=O)NCC(c1ccc(I)cc1)C(c1ccccc1)c1ccccc1 (stereo not shown) [Compound 168]	–	32	–
COc1cc(CC(=O)NCC(c2ccc(I)cc2)C(c2ccccc2)c2ccccc2)cc(OC)c1 (stereo not shown) [Compound 171]	–	25	–
O=C(NCC(c1ccc(I)cc1)C(c1ccccc1)c1ccccc1)c1ccccc1Cl (stereo not shown) [Compound 172]	–	32	–
O=C(NCC(c1ccc(I)cc1)C(c1ccccc1)c1ccccc1)c1ccc(Cl)c(Cl)c1 (stereo not shown) [Compound 174]	–	50	–
O=C(NCC(c1ccc(I)cc1)C(c1ccccc1)c1ccccc1)c1ccccc1F (stereo not shown) [Compound 175]	–	65	–
O=C(NCC(c1ccc(I)cc1)C(c1ccccc1)c1ccccc1)c1ccc(F)cc1 (stereo not shown) [Compound 176]	–	68	–
O=C(NCC(c1ccc(I)cc1)C(c1ccccc1)c1ccccc1)c1ccc(C(F)(F)F)cc1 (stereo not shown) [Compound 177]	–	53	–
O=C(NCC(c1ccc(I)cc1)C(c1ccccc1)c1ccccc1)c1cccs1 (stereo not shown) [Compound 179]	–	53	–

The next lines start with results.

melting point [°C]	hPR % inh 10 μM [2] [%]	Compound	inhibition in vivo at 1 mg [1] [%]
78 to 79	–	CCCCC(=O)NCC(c1ccccc1)C(c1ccccc1)c1ccccc1 (stereo not shown) [Compound 62]	36
112 to 113	–	CC(C)CC(=O)NCC(c1ccccc1)C(c1ccccc1)c1ccccc1 (stereo not shown) [Compound 63]	3
143 to 144	–	CC(C)(C)C(=O)NCC(c1ccccc1)C(c1ccccc1)c1ccccc1 (stereo not shown) [Compound 64]	26
103 to 105.5	–	CCOC(=O)CC(=O)NCC(c1ccccc1)C(c1ccccc1)c1ccccc1 (stereo not shown) [Compound 65]	13
175 to 177.5	–	O=C(Cc1cccs1)NCC(c1ccccc1)C1c2ccccc2CCc2ccccc21 (stereo not shown) [Compound 75]	26
135 to 137	–	O=C(Cc1cccs1)NCC1(c2ccccc2)CC1(c1ccccc1)c1ccccc1 (stereo not shown) [Compound 88]	29
130 to 135	–	O=C(Cc1ccsc1)NCC1(c2ccccc2)CC1(c1ccccc1)c1ccccc1 (stereo not shown) [Compound 89]	16
–	41	O=C(Cc1cc(C(F)(F)F)cc(C(F)(F)F)c1)NCC(c1ccc(C(F)(F)F)cc1)C(c1ccccc1)c1ccccc1 (stereo not shown) [Compound 151]	–
–	41	Cc1ccc(CC(=O)NCC(c2ccc(C(F)(F)F)cc2)C(c2ccccc2)c2ccccc2)cc1 (stereo not shown) [Compound 152]	–
–	10	O=C(NCC(c1ccc(C(F)(F)F)cc1)C(c1ccccc1)c1ccccc1)c1cc(C(F)(F)F)cc(C(F)(F)F)c1 (stereo not shown) [Compound 160]	–
–	42	O=C(Cc1ccccc1Cl)NCC(c1ccc(I)cc1)C(c1ccccc1)c1ccccc1 (stereo not shown) [Compound 161]	–
–	40	O=C(Cc1ccccc1F)NCC(c1ccc(I)cc1)C(c1ccccc1)c1ccccc1 (stereo not shown) [Compound 164]	–
–	63	O=C(Cc1cc(C(F)(F)F)cc(C(F)(F)F)c1)NCC(c1ccc(I)cc1)C(c1ccccc1)c1ccccc1 (stereo not shown) [Compound 167]	–
–	45	COc1cccc(CC(=O)NCC(c2ccc(I)cc2)C(c2ccccc2)c2ccccc2)c1 (stereo not shown) [Compound 169]	–
–	25	COc1ccc(CC(=O)NCC(c2ccc(I)cc2)C(c2ccccc2)c2ccccc2)cc1 (stereo not shown) [Compound 170]	–
–	72	O=C(NCC(c1ccc(I)cc1)C(c1ccccc1)c1ccccc1)c1ccc(Cl)cc1 (stereo not shown) [Compound 173]	–
–	53	O=C(NCC(c1ccc(I)cc1)C(c1ccccc1)c1ccccc1)c1cc(C(F)(F)F)cc(C(F)(F)F)c1 (stereo not shown) [Compound 178]	–
